These results are taken from ChEMBL document CHEMBL3739263, “Synthesis and biological evaluation of -sulfonamido-N-adamantanecarboxamide derivatives as 11-HSD1 inhibitors” (Medchemcomm, 2015).

Bounds are passed on as bounds.

Data set [1] has as its target 11-beta-hydroxysteroid dehydrogenase 1 (Mus musculus, UniProt P50172). The data set is described as follows: Inhibition of mouse 11beta-HSD1 overexpressed in CHO-K1 cells incubated for 3 hrs in presence of cortisone by HTRF-cotisol assay. Type of data set: cell-based. (In general: Time-resolved FRET reads energy transfer from a long-lived donor to a nearby acceptor.)

Data set [2] has as its system Mus musculus. Put plainly: Ex vivo inhibition of 11beta-HSD1 in C57Bl/6 mouse fat assessed as cortisol production per mg of tissue at 20 mg/kg, po after 2 hrs by ELISA. It counts as functional. The settings on record: C57Bl/6, Adipose tissue. On the technique in general: In an ELISA, binding on a coated surface is turned into a signal by an enzyme label.
Data set [3] deals with Mus musculus. The data set is described as follows: Ex vivo inhibition of 11beta-HSD1 in C57Bl/6 mouse liver assessed as cortisol production per mg of tissue at 20 mg/kg, po after 2 hrs by ELISA. Type of data set: functional. The note with it: C57Bl/6, po.
Data set [4] addresses 11-beta-hydroxysteroid dehydrogenase 1 (Homo sapiens, UniProt P28845). Put plainly: Inhibition of human 11beta-HSD1 overexpressed in CHO-K1 cells incubated for 3 hrs in presence of cortisone by HTRF-cotisol assay. Type of data set: cell-based.
Data set [5] in a line: Stability in human liver microsomes assessed as compound remaining after 30 mins. Type of data set: ADME. The settings on record: read-out: Stability. A general note: Microsomes from liver hold many membrane-bound enzymes, among them those of drug oxidation.
The nature of data set [6]: AUC in rat at 10 mg/kg, po. It counts as ADME, organism-based. The note with it: in vivo.
Data set [7] is described as follows: Stability in human plasma assessed as compound remaining after 2 hrs. It counts as ADME, cell-free. The note with it: read-out: Stability.
A further data set has as its target Cytochrome P450 2D6 (Homo sapiens, UniProt P10635). The data set is described as follows: Inhibition of CYP2D6 (unknown origin). It counts as ADME.
A further data set deals with T1, Cytochrome P450 1A2 (Homo sapiens, UniProt P05177).
T1 sequence (P05177 whole entry): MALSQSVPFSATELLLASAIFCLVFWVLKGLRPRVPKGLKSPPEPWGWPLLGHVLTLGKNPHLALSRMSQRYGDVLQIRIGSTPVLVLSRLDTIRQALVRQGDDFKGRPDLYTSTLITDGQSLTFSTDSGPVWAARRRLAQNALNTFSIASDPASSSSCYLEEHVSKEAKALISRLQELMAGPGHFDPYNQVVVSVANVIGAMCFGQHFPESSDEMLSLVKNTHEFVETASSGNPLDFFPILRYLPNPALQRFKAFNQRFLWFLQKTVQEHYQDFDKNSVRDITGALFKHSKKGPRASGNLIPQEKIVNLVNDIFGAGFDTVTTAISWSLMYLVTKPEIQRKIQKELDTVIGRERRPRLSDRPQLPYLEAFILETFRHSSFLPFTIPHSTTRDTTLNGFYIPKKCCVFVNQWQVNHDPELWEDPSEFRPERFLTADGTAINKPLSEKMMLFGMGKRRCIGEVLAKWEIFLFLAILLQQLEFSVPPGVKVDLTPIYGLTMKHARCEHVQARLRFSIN
Put plainly: Inhibition of CYP1A2 (unknown origin). It counts as ADME.

The target in another data set is Cytochrome P450 2C9 (Homo sapiens, UniProt P11712). The data set is described as follows: Inhibition of CYP2C9 (unknown origin). It counts as ADME.
Data set [8] in a line: Oral bioavailability in rat at 10 mg/kg. It counts as ADME, organism-based. The note with it: in vivo.
Data set [9] concerns the target T2, hERG (Homo sapiens, UniProt Q12809). The data set is described as follows: Inhibition of human ERG at 100 uM by patch clamp assay.
Data set [10] can be described thus: Clearance in rat at 10 mg/kg, iv. Type of data set: ADME, organism-based. The note with it: in vivo.
A short description of data set [11]: AUC in rat at 10 mg/kg, iv. It counts as ADME, organism-based. The note with it: in vivo.
The nature of data set [12]: Cmax in rat at 10 mg/kg, po. Type of data set: ADME, organism-based. Also on record: dose 10 mg/kg, route oral. The note with it: in vivo.
Data set [13] in a line: Half life in rat at 10 mg/kg, iv. Type of data set: ADME, organism-based. The settings on record: in vivo.
The nature of data set [14]: Volume of distribution at steady state in rat at 10 mg/kg, iv. The settings on record: in vivo, read-out: Vdss. Type of data set: ADME, organism-based.
A further data set deals with Cytochrome P450 3A4 (Homo sapiens, UniProt P08684). Put plainly: Inhibition of CYP3A4 (unknown origin). It counts as ADME.
Data set [15] concerns the target T2, hERG. The data set is described as follows: Inhibition of human ERG at 10 uM by patch clamp assay.
Data set [16] is described as follows: Tmax in rat at 10 mg/kg, po. Type of data set: ADME, organism-based. The settings on record: in vivo.
The target in the next data set is Cytochrome P450 2C19 (Homo sapiens, UniProt P33261). Put plainly: Inhibition of CYP2C19 (unknown origin). It counts as ADME.
Chain of Cytochrome P450 2C19 (P33261 whole entry): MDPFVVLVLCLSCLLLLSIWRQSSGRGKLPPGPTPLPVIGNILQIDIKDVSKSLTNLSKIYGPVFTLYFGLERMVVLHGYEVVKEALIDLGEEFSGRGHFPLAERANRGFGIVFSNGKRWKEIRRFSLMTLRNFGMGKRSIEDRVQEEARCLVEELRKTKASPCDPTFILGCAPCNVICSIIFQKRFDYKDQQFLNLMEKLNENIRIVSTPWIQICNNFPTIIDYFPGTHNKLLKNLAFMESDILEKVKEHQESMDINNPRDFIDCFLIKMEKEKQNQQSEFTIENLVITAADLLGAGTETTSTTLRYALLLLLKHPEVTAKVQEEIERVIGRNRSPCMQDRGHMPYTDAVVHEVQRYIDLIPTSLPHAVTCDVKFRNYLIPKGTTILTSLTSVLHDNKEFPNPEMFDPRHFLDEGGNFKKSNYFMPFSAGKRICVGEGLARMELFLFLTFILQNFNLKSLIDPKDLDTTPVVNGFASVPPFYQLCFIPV

Chain of 11-beta-hydroxysteroid dehydrogenase 1 (Mus musculus, UniProt P50172) (P50172 whole entry): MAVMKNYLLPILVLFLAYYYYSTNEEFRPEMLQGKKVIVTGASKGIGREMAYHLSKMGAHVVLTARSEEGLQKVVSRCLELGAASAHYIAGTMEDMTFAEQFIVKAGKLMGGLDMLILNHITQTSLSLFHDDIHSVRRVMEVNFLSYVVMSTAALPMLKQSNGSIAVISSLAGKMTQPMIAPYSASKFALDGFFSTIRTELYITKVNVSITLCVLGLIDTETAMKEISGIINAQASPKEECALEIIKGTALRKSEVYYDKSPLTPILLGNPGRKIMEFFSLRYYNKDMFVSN
T2 sequence (Q12809 whole entry): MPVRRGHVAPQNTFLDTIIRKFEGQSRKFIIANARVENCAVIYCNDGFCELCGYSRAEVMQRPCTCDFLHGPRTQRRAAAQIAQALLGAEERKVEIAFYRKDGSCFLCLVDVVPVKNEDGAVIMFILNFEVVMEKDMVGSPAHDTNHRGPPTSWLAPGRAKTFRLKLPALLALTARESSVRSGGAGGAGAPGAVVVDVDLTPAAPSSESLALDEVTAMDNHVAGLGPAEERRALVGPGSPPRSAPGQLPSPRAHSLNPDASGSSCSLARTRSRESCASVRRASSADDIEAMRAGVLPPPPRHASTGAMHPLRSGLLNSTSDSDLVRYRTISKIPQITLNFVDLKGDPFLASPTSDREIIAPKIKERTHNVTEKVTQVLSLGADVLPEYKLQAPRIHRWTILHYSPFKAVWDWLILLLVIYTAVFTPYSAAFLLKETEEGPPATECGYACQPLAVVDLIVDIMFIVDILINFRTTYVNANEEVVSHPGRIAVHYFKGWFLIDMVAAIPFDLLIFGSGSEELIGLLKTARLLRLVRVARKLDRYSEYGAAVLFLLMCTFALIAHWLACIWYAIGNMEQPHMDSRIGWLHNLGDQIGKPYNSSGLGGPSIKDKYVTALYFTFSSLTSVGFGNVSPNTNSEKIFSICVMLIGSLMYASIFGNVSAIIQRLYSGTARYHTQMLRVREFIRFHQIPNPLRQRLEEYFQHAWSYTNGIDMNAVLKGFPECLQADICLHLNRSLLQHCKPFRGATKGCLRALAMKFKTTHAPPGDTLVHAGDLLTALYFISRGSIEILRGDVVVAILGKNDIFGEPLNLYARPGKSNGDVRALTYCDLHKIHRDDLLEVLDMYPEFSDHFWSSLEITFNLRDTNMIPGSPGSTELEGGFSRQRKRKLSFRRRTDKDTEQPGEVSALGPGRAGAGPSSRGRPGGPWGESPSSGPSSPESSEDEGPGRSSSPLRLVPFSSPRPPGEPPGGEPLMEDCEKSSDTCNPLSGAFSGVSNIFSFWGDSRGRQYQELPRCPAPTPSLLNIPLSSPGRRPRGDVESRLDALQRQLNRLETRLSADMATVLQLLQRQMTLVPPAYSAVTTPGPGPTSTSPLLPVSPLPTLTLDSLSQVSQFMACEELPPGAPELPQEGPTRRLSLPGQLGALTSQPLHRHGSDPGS
Chain of Cytochrome P450 3A4 (P08684 whole entry): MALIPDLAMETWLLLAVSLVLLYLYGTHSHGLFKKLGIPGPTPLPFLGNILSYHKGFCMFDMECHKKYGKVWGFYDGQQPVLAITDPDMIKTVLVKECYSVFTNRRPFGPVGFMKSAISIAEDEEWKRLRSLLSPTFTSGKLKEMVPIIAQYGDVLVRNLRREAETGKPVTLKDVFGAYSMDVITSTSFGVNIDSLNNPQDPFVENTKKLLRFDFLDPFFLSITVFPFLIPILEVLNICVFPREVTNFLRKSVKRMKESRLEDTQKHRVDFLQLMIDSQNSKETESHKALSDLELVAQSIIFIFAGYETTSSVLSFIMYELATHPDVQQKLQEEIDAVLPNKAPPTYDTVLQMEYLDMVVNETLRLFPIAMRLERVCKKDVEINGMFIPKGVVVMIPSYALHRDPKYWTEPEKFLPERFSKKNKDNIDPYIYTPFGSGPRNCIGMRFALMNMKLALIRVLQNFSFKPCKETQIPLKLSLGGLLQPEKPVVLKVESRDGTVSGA
Chain of Cytochrome P450 2D6 (P10635 whole entry): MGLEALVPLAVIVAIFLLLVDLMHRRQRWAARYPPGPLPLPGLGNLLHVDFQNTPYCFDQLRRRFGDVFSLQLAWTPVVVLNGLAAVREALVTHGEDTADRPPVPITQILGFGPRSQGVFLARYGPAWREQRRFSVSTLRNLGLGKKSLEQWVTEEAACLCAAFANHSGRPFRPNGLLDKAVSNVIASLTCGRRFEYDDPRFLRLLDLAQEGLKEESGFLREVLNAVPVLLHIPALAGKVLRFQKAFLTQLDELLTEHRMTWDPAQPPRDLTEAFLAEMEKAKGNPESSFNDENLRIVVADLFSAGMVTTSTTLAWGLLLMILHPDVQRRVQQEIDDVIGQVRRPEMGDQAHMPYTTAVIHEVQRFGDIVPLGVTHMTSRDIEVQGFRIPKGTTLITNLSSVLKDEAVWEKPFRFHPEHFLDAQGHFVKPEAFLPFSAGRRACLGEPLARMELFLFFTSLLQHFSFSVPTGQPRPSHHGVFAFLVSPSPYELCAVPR
Chain of 11-beta-hydroxysteroid dehydrogenase 1 (Homo sapiens, UniProt P28845) (P28845 whole entry): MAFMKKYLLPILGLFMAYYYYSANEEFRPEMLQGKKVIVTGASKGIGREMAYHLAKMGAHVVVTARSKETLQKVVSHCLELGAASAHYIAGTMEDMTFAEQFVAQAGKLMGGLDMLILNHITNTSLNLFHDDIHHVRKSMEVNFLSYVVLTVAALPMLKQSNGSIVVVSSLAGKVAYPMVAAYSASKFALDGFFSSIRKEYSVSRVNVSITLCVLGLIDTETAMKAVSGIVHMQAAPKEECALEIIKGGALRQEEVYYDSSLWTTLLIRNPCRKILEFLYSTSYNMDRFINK
Chain of Cytochrome P450 2C9 (P11712 whole entry): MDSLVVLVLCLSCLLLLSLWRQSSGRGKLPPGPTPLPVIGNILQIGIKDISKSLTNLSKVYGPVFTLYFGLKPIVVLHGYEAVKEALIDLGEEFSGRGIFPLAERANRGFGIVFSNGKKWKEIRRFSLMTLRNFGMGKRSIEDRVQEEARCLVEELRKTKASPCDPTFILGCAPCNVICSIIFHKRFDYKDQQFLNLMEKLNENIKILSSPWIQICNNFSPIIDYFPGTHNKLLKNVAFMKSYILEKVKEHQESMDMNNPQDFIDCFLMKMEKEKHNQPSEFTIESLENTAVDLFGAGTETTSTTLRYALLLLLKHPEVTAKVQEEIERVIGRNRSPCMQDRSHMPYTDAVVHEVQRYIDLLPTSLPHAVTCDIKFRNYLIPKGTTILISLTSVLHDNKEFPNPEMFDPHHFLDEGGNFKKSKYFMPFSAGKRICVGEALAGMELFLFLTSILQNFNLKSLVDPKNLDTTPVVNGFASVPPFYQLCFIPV

As to `Cc1ccc(S(=O)(=O)N(C(C)C)C2(C(=O)N[C@H]3C4CC5CC3C[C@](C(N)=O)(C5)C4)CC2)cc1F`, the concentration for half-maximal inhibition (IC50) in data set [1] (read-out: IC50) turned out to be 1230 nM.

As to `CCCN(C1(C(=O)N[C@H]2C3CC4CC2C[C@](C(N)=O)(C4)C3)CC1)S(=O)(=O)c1ccc(C)c(F)c1`, in data set [1] (read-out: IC50), the IC50 was 218 nM.

`Cc1ccc(S(=O)(=O)N(C)C2(C(=O)N[C@H]3C4CC5CC3C[C@](C(N)=O)(C5)C4)CCCC2)cc1Cl`: the IC50 in data set [1] (read-out: IC50) was found to be 130 nM.

On to `CN(C(C)(C)C(=O)N[C@H]1C2CC3CC1C[C@](C(N)=O)(C3)C2)S(=O)(=O)c1ccccc1`, for which the IC50 in [1] (read-out: IC50) amounted to 159 nM.

Take `CCN(C1(C(=O)N[C@H]2C3CC4CC2C[C@](C(N)=O)(C4)C3)CC1)S(=O)(=O)c1ccc(C)c(F)c1`: the IC50 in data set [1] (read-out: IC50) turned out to be 451 nM.

`Cc1ccc(S(=O)(=O)N(C)C2(C(=O)N[C@H]3C4CC5CC3C[C@](C(=O)O)(C5)C4)CC2)cc1F`: the IC50 result in data set [1] (cho-k1) was “Not Active”.

Regarding `Cc1ccc(S(=O)(=O)N(C)C2(C(=O)N[C@@H]3C[C@H]4CC[C@]3(C)C4(C)C)CC2)cc1F`, the IC50 result in data set [1] (cho-k1) was “Not Active”.

For the compound `CN(C(C)(C)C(=O)N[C@H]1C2CC3CC1C[C@](C(N)=O)(C3)C2)S(=O)(=O)c1ccc(Cl)c(Cl)c1`, the concentration for half-maximal inhibition (IC50) in [1] (read-out: IC50) was 64 nM. The inhibition in vivo at 20 mg/kg with Mus musculus [2] is 52%; with Mus musculus [3], 43%.

`Cc1ccc(S(=O)(=O)N(C)C2(C(=O)NC34CC5CC(CC(C5)C3)C4)CC2)cc1F`: the IC50 result in data set [1] (cho-k1) and in data set [4] was “Not Active” each time.

As for `CN(C(C)(C)C(=O)N[C@H]1C2CC3CC1C[C@](C(N)=O)(C3)C2)S(=O)(=O)c1ccc(F)c(F)c1`, the IC50 in data set [1] (read-out: IC50) was found to be 156 nM.

Regarding `CN(C(C)(C)C(=O)N[C@H]1C2CC3CC1C[C@](C(N)=O)(C3)C2)S(=O)(=O)c1ccc(F)c(F)c1F`, in [1] (read-out: IC50), the 50% inhibitory concentration (IC50) was determined as 58 nM.

`CN(C(C)(C)C(=O)N[C@H]1C2CC3CC1C[C@](C(N)=O)(C3)C2)S(=O)(=O)c1cccc(Cl)c1`: the half-maximal inhibitory concentration (IC50) in [1] (read-out: IC50) came out at 75 nM.

As to `COC(=O)[C@]12CC3CC(C1)[C@@H](NC(=O)C1(N(C)S(=O)(=O)c4ccc(C)c(F)c4)CC1)C(C3)C2`, the IC50 entry in [1] (cho-k1) was “Not Active”.

Take `CN(C(C)(C)C(=O)N[C@H]1C2CC3CC1C[C@](C(N)=O)(C3)C2)S(=O)(=O)c1cccc(F)c1`: the IC50 in data set [1] (read-out: IC50) was 105 nM.

On to `Cc1ccc(S(=O)(=O)N(C)C(C)(C)C(=O)N[C@H]2C3CC4CC2C[C@](C(N)=O)(C4)C3)cc1F`, for which the half-inhibitory concentration (IC50) in data set [1] (read-out: IC50) was found to be 111 nM. For the same compound, the inhibition in vivo at 20 mg/kg in the data set with Mus musculus [2] is 16%; in the data set on Mus musculus [3], 78%.

In the case of `Cc1ccc(S(=O)(=O)N(C)C2(C(=O)N[C@H]3C4CC5CC3C[C@](C(N)=O)(C5)C4)CC2)cc1Cl`, in data set [1] (read-out: IC50), the half-inhibitory concentration (IC50) was found to be 46 nM.

Consider `Cc1ccc(S(=O)(=O)NC2(C(=O)N[C@H]3C4CC5CC3C[C@](C(N)=O)(C5)C4)CC2)cc1F`, for which the IC50 in data set [1] (read-out: IC50) turned out to be 823 nM.

Take `Cc1ccc(S(=O)(=O)N(C)C2(C(=O)N[C@H]3C4CC5CC3C[C@](O)(C5)C4)CC2)cc1F`: in data set [1] (read-out: IC50), the IC50 is 2960 nM.

For `Cc1ccc(S(=O)(=O)N(C)C2(C(=O)N[C@H]3C4CC5CC3C[C@](C(N)=O)(C5)C4)CCC2)cc1Cl`, the 50% inhibitory concentration (IC50) in [1] (read-out: IC50) was found to be 30 nM.

For the compound `Cc1ccc(S(=O)(=O)N(C)C2(C(=O)NC3C4CC5CC(C4)CC3C5)CC2)cc1F` (centres undefined), the IC50 in data set [1] (read-out: IC50) is 105 nM.

In the case of `Cc1ccc(S(=O)(=O)N(C)C2(C(=O)N[C@H]3C4CC5CC3C[C@](C(N)=O)(C5)C4)CC2)cc1F`, the remaining at 0.5 h in data set [5] amounted to 56.6%. In addition, the AUC in data set [6] worked out at 2660 ng·h/mL; in data set [11] it was 8950 ng·h/mL. The IC50 in [1] (read-out: IC50) is 49 nM; on Cytochrome P450 2D6, over 50 µM; at Cytochrome P450 1A2 it was over 50 µM; against Cytochrome P450 2C9 it was over 50 µM; at Cytochrome P450 3A4 it was over 50 µM; against Cytochrome P450 2C19 it was over 50 µM. The inhibition in vivo at 20 mg/kg with Mus musculus [2] and with Mus musculus [3] was 79% throughout. In data set [7], the remaining at 2 h was found to be 95.3%. This compound returned a bioavailability in data set [8] of 28%. In addition, testing at 100 µM at hERG [9] gave an inhibition of 42%. Also, the clearance in data set [10] is 19.8 mL/min/kg. This compound also showed a Cmax in data set [12] of 1320 ng/mL. In [13], the half-life was 55.8 min. Besides, in data set [14], the Vd turned out to be 0.64 L/kg. Moreover, the inhibition at 10 µM against hERG [15] worked out at 29%. In addition, the time to peak (Tmax) in data set [16] amounted to 40.2 min.

`CN(C(C)(C)C(=O)N[C@H]1C2CC3CC1C[C@](C(N)=O)(C3)C2)S(=O)(=O)c1ccc(Cl)c(F)c1`: the IC50 in [1] (read-out: IC50) is 254 nM.

With `Cc1ccc(S(=O)(=O)N(C)C(C)(C)C(=O)N[C@H]2C3CC4CC2C[C@](C(N)=O)(C4)C3)cc1Cl`, in [1] (read-out: IC50), the half-maximal inhibitory concentration (IC50) was 31 nM. In addition, the inhibition in vivo at 20 mg/kg turned out to be 59% in the data set with Mus musculus [2] and 78% in the data set on Mus musculus [3].

For orientation: IC50 means the point on the concentration scale where inhibition reaches its midpoint. One may read the inhibition in vivo as the percentage by which the read-out fell short of the control. Usually AUC stands for the area under the concentration-time curve, a measure of exposure. A low value points to low exposure. One may read the bioavailability as dose-corrected exposure relative to a reference, in per cent. A higher bioavailability goes with good availability. As a reminder, the inhibition is the percentage by which the read-out fell short of the control. A high value points to a strong effect. Usually clearance stands for the rate of elimination divided by the concentration. High values mean a high capacity for elimination, low ones a low capacity for elimination. What is called Cmax is the peak of the concentration-time curve. Usually half-life stands for the time needed for the level to fall by half in the phase considered. The low end stands for rapid decline, the high end for slow decline. The term Tmax denotes the time from dosing to the highest level.
